Patent US12221444B2, “5,6,7,7a-tetrahydrocyclopenta[f]pyrido[1,2-h][1,7]naphthyridin-11(4bH)-one compounds and methods of use” (GLAXOSMITHKLINE INTELLECTUAL, priority 2017, dated 2025)

Tests used:
HBs antigens (HBsAg) = assay: HepAD38 cells HBsAg ELISA; format: cell-based, Hepatitis B virus; conditions: read-out: HepAD38, HBsAg (EC50), 7 days total treatment, HBsAg ELISA of cell media
Protocol: (§1) Example 36 HepAD38 Cells—HBsAg ELISA and Cytotoxicity Assays
(§2) HepAD38 cells are maintained in collagen-coated flasks in cell culture medium (DMEM/F12 containing 10% fetal bovine serum (FBS), GlutaMax-1, penicillin/streptomycin, non-essential amino acids, Na pyruvate, 250 μg/mL geneticin, and 1 μg/mL doxycycline). Compound solutions are prepared in DMSO and compound are serially diluted for final concentrations of 4000, 1000, 250, 62.5, 15.6, 3.91, 0.977, 0.244, 0.061, and 0.015 ηM. The cells are then trypsinized and the cells are plate at 10,000 cells per well. Incubate plates are incubated at 37° C., 5% CO2 for 4 days. Media is replaced with new media with compound treatment. The plates are then incubated at 37° C., 5% CO2 for an additional 3 days for a total treatment time of 7 days. For antiviral response, HBsAg was measured using the HBsAg ELISA kit (International Immuno-diagnostics) with instructions provided. 100 uL of cell media samples was used for ELISA. The absorbance was read on the Spectramax® 384 plate reader (Molecular Devices) at 450 nm. For cell toxicity, the cells were used for CellTiter-Glo® Luminescent Cell Viability Assay reagent (Promega). The luminescence was read on Envision Multilabel Reader (Perkin Elmer). The data was analyzed compared to the DMSO control. % inhibition=(1−(unknown/high control))*100
(§3) The average % inhibition values from duplicate assay plates are then plotted in GraphPad Prism to determine one IC value: Four-parameter logistic curve with equation Y=Bottom+(Top-Bottom)/(1+10^((Log IC50−X)*HillSlope)) pIC50=[…]

HepAD38 cells = HepAD38 cells cytotoxicity assay (CellTiter-Glo Luminescent Cell Viability Assay); format: cell-based; conditions: 7 days total treatment, read-out: Cell tox (EC50, ηM)
Protocol: as §1, §2, §3

[1] = as above; format: cell-based; conditions: human, 7 days total treatment, read-out: Cell tox (EC50, ηM)
Protocol: as §1, §2, §3

| Compound | EC50 (HBs antigens (HBsAg)) [µM] | EC50 (HepAD38 cells) [µM] | EC50 at 7 days [1] [µM] |
| --- | --- | --- | --- |
| CC(C)(C)C1Cc2cc(OCC3CC3)c(Cl)nc2-c2cc(=O)c(C(=O)O)cn21 (single isomer, unassigned; isomer 1) [Example 30-A, 6-(tert-Butyl)-2-chloro-3-(cyclopropylmethoxy)-10-oxo-6,10-dihydro-5H-pyrido[1,2-h][1,7]naphthyridine-9-carboxylic acid (isomer 1)] | < 0.001 | > 4 | – |
| CC(C)C1(C)Cc2cc(OCC3CC3)c(Cl)nc2-c2cc(=O)c(C(=O)O)cn21 (single isomer, unassigned; isomer-2) [Example 27, (2-Chloro-3-(cyclopropylmethoxy)-6-isopropyl-6-methyl-10-oxo-5,10-dihydro-6H-pyrido[1,2-h][1,7]naphthyridine-9-carboxylic acid-Isomer-2] | > 0.1 | > 4 | – |
| COCCCOc1cc2c(nc1C1CC1)-c1cc(=O)c(C(=O)O)cn1C(C)(C(C)C)C2 (single isomer, unassigned; isomer-2) [Example 29, 2-Cyclopropyl-6-isopropyl-3-(3-methoxypropoxy)-6-methyl-10-oxo-5,10-dihydro-6H-pyrido[1,2-h][1,7]naphthyridine-9-carboxylic acid-Isomer-2] | 0.01 to 0.1 | > 4 | – |
| C=C(C)c1nc2c(cc1OCCCOC)C[C@@H](C(C)(C)C)n1cc(C(=O)O)c(=O)cc1-2 [Example 21, (S)-6-(tert-Butyl)-3-(3-methoxypropoxy)-10-oxo-2-(prop-1-en-2-yl)-6,10-dihydro-5H-pyrido[1,2-h][1,7]naphthyridine-9-carboxylic acid] | < 0.001 | – | > 4 |
| COCCCOc1cc2c(nc1C(C)C)-c1cc(=O)c(C(=O)O)cn1[C@H](C(C)(C)C)C2 [Example 22, (S)-6-(tert-Butyl)-2-isopropyl-3-(3-methoxypropoxy)-10-oxo-6,10-dihydro-5H-pyrido[1,2-h][1,7]naphthyridine-9-carboxylic acid] | < 0.001 | – | > 4 |
| COCCCOc1cc2c(nc1Cl)-c1cc(=O)c(C(=O)O)c(C)n1[C@H](C(C)(C)C)C2 [Example 23, (S)-6-(tert-Butyl)-2-chloro-3-(3-methoxypropoxy)-8-methyl-10-oxo-6,10-dihydro-5H-pyrido[1,2-h][1,7]naphthyridine-9-carboxylic acid] | > 0.1 | – | > 4 |
| COCCCOc1cc2c(nc1CO)-c1cc(=O)c(C(=O)O)cn1[C@H](C(C)(C)C)C2 [Example 24, (S)-6-(tert-Butyl)-2-(hydroxymethyl)-3-(3-methoxypropoxy)-10-oxo-5,10-dihydro-6H-pyrido[1,2-h][1,7]naphthyridine-9-carboxylic acid] | 0.001 to 0.01 | – | > 4 |
| COCCCOc1cc2c(nc1C1CC1)-c1c(O)c(=O)c(C(=O)O)cn1[C@H](C(C)(C)C)C2 [Example 25, (S)-6-(tert-Butyl)-2-cyclopropyl-11-hydroxy-3-(3-methoxypropoxy)-10-oxo-5,10-dihydro-6H-pyrido[1,2-h][1,7]naphthyridine-9-carboxylic acid] | < 0.001 | – | > 4 |
| O=C(O)c1cn2c(cc1=O)-c1nc(Cl)c(OCC3CC3)cc1CC21CCC1 [Example 31, 2′-Chloro-3′-(cyclopropylmethoxy)-10′-oxo-5′,10′-dihydrospiro[cyclobutane-1,6′-pyrido[1,2-h][1,7]naphthyridine]-9′-carboxylic acid] | 0.001 to 0.01 | – | > 4 |
| COc1cc2c(nc1OC)-c1cc(=O)c(C(=O)O)cn1C1(CCC1)C2 [Example 32, 2′,3′-Dimethoxy-10′-oxo-5′,10′-dihydrospiro[cyclobutane-1,6′-pyrido[1,2-h][1,7]naphthyridine]-9′-carboxylic acid] | 0.01 to 0.1 | – | > 4 |
| Cc1cc2c(nc1C)CC(C(C)C)n1cc(C(=O)O)c(=O)cc1-2 (stereo not shown) [Example 33, 6-Isopropyl-2,3-dimethyl-10-oxo-5,10-dihydro-6H-pyrido[2,1-f][1,6]naphthyridine-9-carboxylic acid] | > 0.1 | – | > 4 |
